From patent publication US11910798B2, “Compositions including a vacancy-engineered (VE)-ZnO nanocomposite, methods of making the compositions and methods of using the compositions” (priority 2015, dated 2024)

System: E. coli
Test: MIC against E. coli
Type: cell-based
Details: Escherichia coli, read-out: MIC (μg/mL) in metallic Zn or Cu
Excerpt: Table 1 illustrates the minimum inhibitory concentration against E. coli for various agents.

Question: `O=C([O-])c1ccccc1O.[Na+]` [Capping Agent, sodium salicylate] was tested. Which MIC did it give?
Answer: The MIC was 3000 µg/mL.
